The values below are quoted from earlier work in patent US20220071922A1, “DELIVERY OF HEALTH BENEFITS THROUGH COMPONENT FORMULATION” (Clear Lake Research, LLC, priority 2018, published 2022).

Data set [1] concerns the target CB2 receptors (Homo sapiens, UniProt P34972). The note with it: estimated; times the affinity of CBD.
For data set [2] the following is noted: applied topically.
For data set [3] the following is noted: phytocannabinoids interact with oxygen; without nitrogen overlay.

Chain of CB2 receptors (P34972 whole entry): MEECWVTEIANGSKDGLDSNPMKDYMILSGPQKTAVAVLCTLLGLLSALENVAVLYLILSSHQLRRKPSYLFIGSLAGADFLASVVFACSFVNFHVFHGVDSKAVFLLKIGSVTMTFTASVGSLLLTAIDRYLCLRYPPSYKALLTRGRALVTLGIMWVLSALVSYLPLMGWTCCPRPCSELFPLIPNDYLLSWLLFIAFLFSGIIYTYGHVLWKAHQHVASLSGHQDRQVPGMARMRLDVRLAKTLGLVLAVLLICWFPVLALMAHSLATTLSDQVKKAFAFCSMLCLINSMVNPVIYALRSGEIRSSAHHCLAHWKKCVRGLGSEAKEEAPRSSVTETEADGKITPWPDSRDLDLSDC

With `CCCCCCCCCCCCCCCC(=O)OC(CO)CO` [2-Palmitolyl-glycerol], the “affinity relative to CBD” value in data set [1] was ~1,000 times.

Regarding `CCCCC/C=C\C/C=C\CCCCCCCC(=O)OC(CO)CO` [2-Lineoleoyl-glycerol], the “affinity relative to CBD” value in data set [1] is ~1,000 times. `C=C(C)[C@@H]1CCC(C)=C[C@H]1c1c(O)cc(CCCCC)cc1O` [CBD, cannabidiol]: in data set [2], the “time to significant pain relief impact” value is given as “about 30 minutes”. Moreover, the shelf life result in data set [3] is on record as “about six”.
